Experimental findings from BindingDB's records for doi:10.1021/jm00117a005 (Sterling-Winthrop Research Institute, 1988) are described below.

A word on the IC50: it is the concentration that inhibits the measured activity by half. Read a low IC50 as inhibition by little substance.

The target of this assay is DNA gyrase (Escherichia coli). Kind of assay: Gyrase inhibitory activity against Escherichia coli.

In the case of `CN1CCN(c2c(F)cc3c(=O)c(C(=O)O)cn4c3c2OCC42CC2)CC1`, half-maximal inhibition (IC50) required 2.67 µM.
